{"source": "patent US10960084B2", "about": "“Modulation of fluid intake” (California Institute of Technology, priority 2018, dated 2021)", "key": {"[1]": {"test_system": "hM4Di-expressing MnPO^GLP1r neurons", "assay": "Slice current-clamp recording, CNO on hM4Di-expressing MnPO^GLP1r neurons", "type": "cell-based, mice", "conditions": "CNO application", "text": "Procedures for preparation of acute brain slices and recordings with optogenetic stimulations were similar to those described previously^[10],[36]. After decapitation, the brain was removed and immersed in ice-cold solution. Coronal slices ([…]) were cut using a vibratome (VT-1200s, Leica) and moved into HEPES-holding solution (NaCl 92, KCl 2.5, NaH2PO4 1.2, NaHCO3 30, HEPES 20, glucose 25, Na-ascorbate 5, Thiourea 2, Na14 pyruvate 3, MgSO4 2, CaCl2 2, pH 7.35). The slices were allowed to recover at 33° C. for 30 min and then held at room temperature ([…]) until use.\nWhile recording, slices were perfused continuously (˜2 mL/min) with artificial cerebrospinal fluid (ACSF-NaCl 124, KCl2.5, NaH2PO4 1.2, NaHCO3 24, glucose 25, MgSO4 1, CaCl2 2) at 25° C. Neurons were visualized and targeted using an upright IR19 DIC microscope (BX51WI, Olympus). […] In order to confirm the PSCs recorded were GABAergic, picrotoxin (150 μM) was applied through the bath in part of the experiments. […] CNO (˜6 μM) was applied by a puff (30 s) from another glass pipette placed ˜50 μm from the recorded cell."}, "[2]": {"test_system": "MnPO^GLP1r neurons", "assay": "Drinking assays with chemogenetic inhibition of MnPO^GLP1r neurons by CNO", "type": "in vivo, mice", "conditions": "hM4Di in MnPO^GLP1r", "description": "For water-restriction experiments, animals were provided with 1 mL of water daily. For food restriction experiments, animals were provided 0.5 pellets/20 g body weight daily. All assays were performed in a modified lickometer as described previously^[35] or Biodaq monitoring system (Research Diets Inc). For all photometry assays, animals were acclimatized for 10-15 min in the lickometer cage before stimuli were given.\nLong-term access assays: Optogenetic Testing—For FIGS. 1L-N and FIGS. 7L-O, satiated mice were given ad libitum access to water for 20 min with photostimulation. Photostimulation was delivered for 1-s followed by 3-s intervals throughout the behavioral sessions. For FIGS. 2J-M and FIGS. 11C-E, mice were given access to water for 20 min after 24 h water-restriction, and photostimulation was delivered for the first 10 min. For feeding assays (FIGS. 2J-M), animals were single-housed in Biodaq cages after 24 h food-restriction, and chow intake was measured for 20 min with or without light stimulation. For acute inhibition experiments, mice were given access to 150 mM NaCl (FIGS. 5D-E, FIGS. 13E-F), water (FIGS. 1L-N, FIGS. 7L-O, FIGS. 13A-D, FIGS. 13G-H) for 20-30 min after 24 h water-restriction or 300 mM sucrose (FIGS. 1L-N, FIGS. 7L-O) after food-restriction. For all acute inhibition experiments, CNO was injected at 10 mg/kg body weight, 30 min prior to the start of the behavior session. For acute activation experiments, CNO was injected at 1 mg/kg body weight (FIGS. 12L-M), 30 min prior to the start of the behavior session. For FIG. 3A, FIGS. 9A-C, and FIG. 13L, water or saline access was provided for 30 min after 24 hours of water restriction. For FIGS. 4A-B, water or HydroGel (ClearH2O) in a cup was provided for 30 min after 24 and 36 hours of water restriction, respectively. The weight of the cup was measured before and after the behavior session. For FIGS. 4K-L, 0.5 pellets of chow was provided for 30 min after 24 h food-restriction. The entire session was recorded using a camera at 30 fps and ingestion episodes were manually annotated."}, "[3]": {"test_system": "SFO^nNOS neurons", "assay": "Acute activation of SFO^nNOS neurons by hM3Dq-mCherry with CNO", "type": "in vivo, mice", "conditions": "hM3Dq-mCherry in SFO^nNOS; intraperitoneal CNO 1 mg/kg", "description": "Long-term access assays: Optogenetic Testing—For FIGS. 1L-N and FIGS. 7L-O, satiated mice were given ad libitum access to water for 20 min with photostimulation. Photostimulation was delivered for 1-s followed by 3-s intervals throughout the behavioral sessions. For FIGS. 2J-M and FIGS. 11C-E, mice were given access to water for 20 min after 24 h water-restriction, and photostimulation was delivered for the first 10 min. For feeding assays (FIGS. 2J-M), animals were single-housed in Biodaq cages after 24 h food-restriction, and chow intake was measured for 20 min with or without light stimulation. […] The weight of the cup was measured before and after the behavior session. […] The entire session was recorded using a camera at 30 fps and ingestion episodes were manually annotated.\nWe measured bulk fluorescence signals using fiber photometry as previously described^[26]. […] The fluorescence signal was then focused onto a femtowatt photoreceiver (Newport, Model 2151). […] The licks from the lickometer were simultaneously recorded as real-time TTL signals to the RP2.1. Fluorescence changes were analyzed using custom MATLAB (MathWorks) code as described previously^[26]. […] The resultant ΔF/F was calculated as (raw 490 nm signal-fitted 405 nm signal)/(fitted 405 nm signal). For brief access tests, the Area Under Curve (ΣΔFduring) was quantified by integrating the fluorescence signals during the bout. […]"}}, "note": "“Also recorded” adds a separate entry of the source."}
{"smiles": "C[N+]1([O-])CCN(C2=Nc3cc(Cl)ccc3Nc3ccccc32)CC1", "note": "[CNO, clozapine-N-oxide]", "values": [{"measurement": "neurons in which firing is inhibited", "setting": "[1]", "result": "6/7"}, {"measurement": "water or saline intake under satiated conditions", "setting": "[2]; satiated", "result": "did not elevate water or saline intake"}, {"measurement": "total water intake (30 min)", "setting": "[2]; water-restricted animals", "result": "minor effect"}, {"measurement": "water consumption at the onset of drinking (first 1 min)", "setting": "[2]; water-restricted animals", "result": "significantly increases water consumption at the onset of drinking"}, {"measurement": "total amount of isotonic saline intake", "setting": "[2]; water-restricted, 30 min, CNO 10 mg/kg vs vehicle", "result": "strikingly increased; also recorded: causes overdrinking of isotonic saline"}, {"measurement": "duration of saline intake (time spent for drinking)", "setting": "[2]; water-restricted, 30 min, CNO vs vehicle", "result": "strikingly increased"}, {"measurement": "water drinking", "setting": "[3]", "result": "induce water drinking"}]}
